# Positions of bridges follow the written chain, without caps; N, C: chain ends. Residues, ends and D or L forms follow the SMILES beside them.
# Assay: Inhibition of C3b activation relative to compstatin
row,Compound,logIC50
1,CC[C@H](C)[C@H](N)C(=O)N[C@H]1CSSC[C@@H](C(=O)N[C@H](C(=O)O)[C@@H](C)O)NC(=O)[C@H](CCCNC(=N)N)NC(=O)[C@H](Cc2cnc[nH]2)NC(=O)[C@H](C)NC(=O)CNC(=O)[C@H](Cc2c[nH]c3ccccc23)NC(=O)[C@H](CC(=O)O)NC(=O)[C@H](CCC(N)=O)NC(=O)[C@H](C2Cc3ccccc3C2)NC(=O)[C@H](C(C)C)NC1=O,1.55
2,CC[C@H](C)[C@H](N)C(=O)N[C@H]1CSSC[C@@H](C(=O)N[C@H](C(=O)O)[C@@H](C)O)NC(=O)[C@H](CCCNC(=N)N)NC(=O)[C@H](Cc2cnc[nH]2)NC(=O)[C@H](C)NC(=O)CNC(=O)[C@H](Cc2c[nH]c3ccccc23)NC(=O)[C@H](CC(=O)O)NC(=O)[C@H](CCC(N)=O)NC(=O)[C@H](Cc2ccc3ccccc3c2)NC(=O)[C@H](C(C)C)NC1=O,1.58
3,CC[C@H](C)[C@H](N)C(=O)N[C@H]1CSSC[C@@H](C(=O)N[C@H](C(N)=O)[C@@H](C)O)NC(=O)[C@H](CCCNC(=N)N)NC(=O)[C@H](Cc2cnc[nH]2)NC(=O)[C@H](Cc2cnc[nH]2)NC(=O)CNC(=O)[C@H](Cc2c[nH]c3ccccc23)NC(=O)[C@H](CC(=O)O)NC(=O)[C@H](CCC(N)=O)NC(=O)[C@H](C(C)C)NC(=O)[C@H](C(C)C)NC1=O,0
4,CC[C@H](C)[C@H](NC(C)=O)C(=O)N[C@H]1CSSC[C@@H](C(=O)N[C@H](C(=O)O)[C@@H](C)O)NC(=O)[C@H](CCCNC(=N)N)NC(=O)[C@H](Cc2cnc[nH]2)NC(=O)[C@H](C)NC(=O)CNC(=O)[C@H](Cc2c[nH]c3ccccc23)NC(=O)[C@H](CC(=O)O)NC(=O)[C@H](CCC(N)=O)NC(=O)[C@H](Cc2ccc(C(=O)c3ccccc3)cc2)NC(=O)[C@H](C(C)C)NC1=O,1.69
5,CC[C@H](C)[C@H](NC(C)=O)C(=O)N[C@H]1CSSC[C@@H](C(=O)N[C@H](C(=O)O)[C@@H](C)O)NC(=O)[C@H](CCCNC(=N)N)NC(=O)[C@H](Cc2cnc[nH]2)NC(=O)[C@H](C)NC(=O)CNC(=O)[C@H](Cc2c[nH]c3ccccc23)NC(=O)[C@H](CC(=O)O)NC(=O)[C@H](CCC(N)=O)NC(=O)[C@H](Cc2cccc3ccccc23)NC(=O)[C@H](C(C)C)NC1=O,1.47
6,CC[C@H](C)[C@H](NC(C)=O)C(=O)N[C@H]1CSSC[C@@H](C(=O)N[C@H](C(N)=O)[C@@H](C)O)NC(=O)[C@H](CCCNC(=N)N)NC(=O)[C@H](Cc2cnc[nH]2)NC(=O)[C@H](Cc2cnc[nH]2)NC(=O)CNC(=O)[C@H](Cc2c[nH]c3ccccc23)NC(=O)[C@H](CC(=O)O)NC(=O)[C@H](CCC(N)=O)NC(=O)[C@H](C(C)C)NC(=O)[C@H](C(C)C)NC1=O,0.477
7,CC[C@H](C)[C@H](NC(C)=O)C(=O)N[C@H]1CSSC[C@@H](C(=O)N[C@H](C(N)=O)[C@@H](C)O)NC(=O)[C@H](CCCNC(=N)N)NC(=O)[C@H](Cc2cnc[nH]2)NC(=O)[C@H](Cc2cnc[nH]2)NC(=O)CNC(=O)[C@H](Cc2c[nH]c3ccccc23)NC(=O)[C@H](CC(=O)O)NC(=O)[C@H](CC(N)=O)NC(=O)[C@H](C(C)C)NC(=O)[C@H](CC(C)C)NC1=O (Ac-ICLVNDWGHHRCT-NH2; disulfide 2-12),0.16
8,CC[C@H](C)[C@H](NC(C)=O)C(=O)N[C@H]1CSSC[C@@H](C(=O)N[C@H](C(N)=O)[C@@H](C)O)NC(=O)[C@H](CCCNC(=N)N)NC(=O)[C@H](Cc2cnc[nH]2)NC(=O)[C@H](Cc2cnc[nH]2)NC(=O)CNC(=O)[C@H](Cc2c[nH]c3ccccc23)NC(=O)[C@H](CC(=O)O)NC(=O)[C@H](CCC(N)=O)NC(=O)[C@H](C(C)C)NC(=O)[C@H](CC(C)C)NC1=O (Ac-ICLVQDWGHHRCT-NH2; disulfide 2-12),0.079
9,CC[C@H](C)[C@H](NC(=O)[C@@H]1CSSC[C@H](NC(=O)[C@@H](NC(C)=O)[C@@H](C)CC)C(=O)N[C@@H](C(C)C)C(=O)N[C@@H](C)C(=O)N[C@@H](CCC(N)=O)C(=O)N[C@@H](CC(=O)O)C(=O)N[C@@H](Cc2c[nH]c3ccccc23)C(=O)NCC(=O)N[C@@H](C)C(=O)N[C@@H](Cc2cnc[nH]2)C(=O)N[C@@H](CCCNC(=N)N)C(=O)N1)C(N)=O (Ac-ICVAQDWGAHRCI-NH2; disulfide 2-12),0.477
10,CC[C@H](C)[C@H](NC(C)=O)C(=O)N[C@H]1CSSC[C@@H](C(=O)N[C@H](C(N)=O)[C@@H](C)O)NC(=O)[C@H](CCCNC(=N)N)NC(=O)[C@H](Cc2cnc[nH]2)NC(=O)[C@H](Cc2cnc[nH]2)NC(=O)CNC(=O)[C@H](Cc2c[nH]c3ccccc23)NC(=O)[C@H](CC(=O)O)NC(=O)[C@H](CCC(N)=O)NC(=O)[C@H](Cc2ccccc2)NC(=O)[C@H](C(C)C)NC1=O (Ac-ICVFQDWGHHRCT-NH2; disulfide 2-12),0.721
11,CC[C@H](C)[C@H](NC(C)=O)C(=O)N[C@H]1CSSC[C@@H](C(=O)N[C@H](C(N)=O)[C@@H](C)O)NC(=O)[C@H](CCCNC(=N)N)NC(=O)[C@H](Cc2cnc[nH]2)NC(=O)[C@H](Cc2cnc[nH]2)NC(=O)CNC(=O)[C@H](Cc2c[nH]c3ccccc23)NC(=O)[C@H](CC(=O)O)NC(=O)[C@H](CCC(N)=O)NC(=O)[C@H](Cc2cnc[nH]2)NC(=O)[C@H](C(C)C)NC1=O (Ac-ICVHQDWGHHRCT-NH2; disulfide 2-12),0.708
12,CC[C@H](C)[C@H](NC(C)=O)C(=O)N[C@H]1CSSC[C@@H](C(=O)N[C@H](C(N)=O)[C@@H](C)O)NC(=O)[C@H](CCCNC(=N)N)NC(=O)[C@H](Cc2cnc[nH]2)NC(=O)[C@H](Cc2cnc[nH]2)NC(=O)CNC(=O)[C@H](Cc2c[nH]c3ccccc23)NC(=O)[C@H](CC(=O)O)NC(=O)[C@H](CCC(N)=O)NC(=O)[C@H](CO)NC(=O)[C@H](C(C)C)NC1=O (Ac-ICVSQDWGHHRCT-NH2; disulfide 2-12),0.022
13,CC[C@H](C)[C@H](NC(C)=O)C(=O)N[C@H]1CSSC[C@@H](C(=O)N[C@H](C(N)=O)[C@@H](C)O)NC(=O)[C@H](C)NC(=O)[C@H](Cc2cnc[nH]2)NC(=O)[C@H](Cc2cnc[nH]2)NC(=O)CNC(=O)[C@H](Cc2c[nH]c3ccccc23)NC(=O)[C@H](CC(=O)O)NC(=O)[C@H](CC(N)=O)NC(=O)[C@H](C(C)C)NC(=O)[C@H](C(C)C)NC1=O (Ac-ICVVNDWGHHACT-NH2; disulfide 2-12),-0.699
14,CC[C@H](C)[C@H](NC(C)=O)C(=O)N[C@H]1CSSC[C@@H](C(=O)N[C@H](C(N)=O)[C@@H](C)O)NC(=O)[C@H](CCCNC(=N)N)NC(=O)[C@H](Cc2cnc[nH]2)NC(=O)[C@H](Cc2cnc[nH]2)NC(=O)CNC(=O)[C@H](Cc2c[nH]c3ccccc23)NC(=O)[C@H](CC(=O)O)NC(=O)[C@H](CC(N)=O)NC(=O)[C@H](C(C)C)NC(=O)[C@H](C(C)C)NC1=O (Ac-ICVVNDWGHHRCT-NH2; disulfide 2-12),0.456
15,CC[C@H](C)[C@H](NC(C)=O)C(=O)N[C@H]1CSSC[C@@H](C(=O)N[C@H](C(N)=O)[C@@H](C)O)NC(=O)[C@H](C)NC(=O)[C@H](Cc2cnc[nH]2)NC(=O)[C@H](C)NC(=O)CNC(=O)[C@H](Cc2c[nH]c3ccccc23)NC(=O)[C@H](CC(=O)O)NC(=O)[C@H](CCC(N)=O)NC(=O)[C@H](C(C)C)NC(=O)[C@H](C(C)C)NC1=O (Ac-ICVVQDWGAHACT-NH2; disulfide 2-12),0.084
16,CC[C@H](C)[C@H](NC(C)=O)C(=O)N[C@H]1CSSC[C@@H](C(=O)N[C@H](C(N)=O)[C@@H](C)O)NC(=O)[C@H](CCCNC(=N)N)NC(=O)[C@H](Cc2cnc[nH]2)NC(=O)[C@H](C)NC(=O)CNC(=O)[C@H](Cc2c[nH]c3ccccc23)NC(=O)[C@H](CC(=O)O)NC(=O)[C@H](CCC(N)=O)NC(=O)[C@H](C(C)C)NC(=O)[C@H](C(C)C)NC1=O (Ac-ICVVQDWGAHRCT-NH2; disulfide 2-12),0.617

# Reference: ChEMBL document CHEMBL1140602, “A simple, yet highly accurate, QSAR model captures the complement inhibitory activity of compstatin” (Bioorg Med Chem, 2007)
